# Where two headings read alike, the source gives them in different places.
# Legend:
# Tm-E54K and NTG mice = experiment: Echocardiography, cardiac function and morphology after three months treatment; assay type: in vivo, mouse
# [1] = tested on: hearts of Tm-E54K and NTG mice; experiment: Histology, cell cross-sectional area; assay type: in vivo, mouse
# [2] = tested on: detergent-extracted fiber bundles of NTG and Tm-E54K mice; assay type: in vivo, mouse; settings: 3 months treatment; for Hill Coefficient / Max. Tension / pCa50 (Ca^2+ concentration at half-maximal tension): Mean ± SEM, n = 6–8 fibers
# [3] = tested on: myofilament proteins (MLC2v, TnT, cTnI, cMyBP-C); experiment: Myofilament protein phosphorylation in hearts of chronically treated mice; assay type: in vivo, mouse
# [4] = tested on: Akt, GSK-3β, β-catenin, phospholamban, ERK1/2, RSK3, SRF, MYPT1/2, SERCA2; experiment: Western blot of signaling pathways in hearts of chronically treated mice; assay type: in vivo, mouse
# [5] = tested on: β-myosin heavy chain (β-MHC); experiment: β-MHC protein expression in hearts of chronically treated mice; assay type: in vivo, mouse; settings: Tm-E54K hearts, chronic treatment; untreated Tm-E54K approximately 30%
# [6] = tested on: RSK3, MYPT1/2 and SRF phosphorylation in neonatal rat ventricular myocytes (NRVM); assay type: cell-based
# [7] = Tm-E54K hearts, N = 4–6 hearts per group
structure (smiles),measurement,setting,value
CCCCc1nc(Cl)c(CO)n1Cc1ccc(-c2ccccc2-c2nn[nH]n2)cc1 [losartan],cardiac output (in words),Tm-E54K and NTG mice,did not have improved cardiac output
same,heart rate (in words),Tm-E54K and NTG mice,nor an increase in heart rate
same,systolic / cardiac function (in words),Tm-E54K and NTG mice; vs. Tm-E54K untreated,no changes in cardiac function
same,cross-sectional cell area (in words),[1]; NTG mice,significant decrease
same,cross-sectional cell area (in words),[1]; Tm-E54K mice,no effect
same,maximum tension generation (in words),[2]; NTG mice,decrease in maximum tension generation
same,Hill Coefficient,[2]; NTG mice,2.10 ± 0.12
same,Max. Tension,[2]; NTG mice,25.73 ± 3.31 ^† mN/mm^2
same,pCa50 (Ca^2+ concentration at half-maximal tension),[2]; NTG mice,significant decrease in pCa50 compared to both TRV067 and untreated NTG groups
same,pCa50 (Ca^2+ concentration at half-maximal tension),"[2]; NTG mice, listed as Losartan",5.60 ± 0.02 ^†
same,maximum tension generation (in words),[2]; Tm-E54K mice,no significant effect
same,Hill Coefficient,[2]; Tm-E54K mice,2.00 ± 0.08
same,Max. Tension,[2]; Tm-E54K mice,27.29 ± 1.07 ^∥ mN/mm^2
same,MLC2v phosphorylation (in words),"[3]; Phos-Tag gel electrophoresis, NTG mice, vs. NTG untreated",significantly decreased
same,TnT phosphorylation (in words),"[3]; ProQ diamond, Tm-E54K mice, vs. TRV067-treated Tm-E54K, N = 4–6 hearts per group",significant decrease
same,cMyBP-C phosphorylation at PKA sites (in words),[3]; mice treated with TRV067 or losartan,"did not observe an increase in other PKA phosphorylatable sites, such as cMyBP-C"
same,MYPT1/2 phosphorylation (in words),[4]; NTG and Tm-E54K mice,no effect
same,RSK3 phosphorylation (in words),[4]; NTG and Tm-E54K mice,no effect
same,SRF phosphorylation (in words),[4]; NTG and Tm-E54K mice,no effect
same,phospholamban (PLN) phosphorylation at S16 (in words),"[4]; NTG mice, vs. untreated controls",increase
same,SERCA2 protein expression (in words),"[4]; Tm-E54K and NTG mice, vs. untreated",no effect
same,Akt phosphorylation at S473 (in words),[4]; [7],decreased
same,GSK-3β phosphorylation at S9 (in words),[4]; [7],decreased
same,β-catenin phosphorylation (in words),[4]; [7],increase
same,phospholamban (PLN) phosphorylation at S16 (in words),[4]; Tm-E54K mice,increase
same,phospholamban (PLN) phosphorylation at T17 (in words),[4]; Tm-E54K mice,not the T17 site
same,"β-MHC expression, % of the isoform content",[5],approximately 10%
same,MYPT1/2 phosphorylation (in words),[6],no effect
same,RSK3 phosphorylation (in words),[6],no effect
same,SRF phosphorylation (in words),[6],no effect

# Reference: PMC5350031 (Circulation, 2017)
